Where “and” joins values, the source holds several entries; their conditions need not be identical. Identical values can stand only once. Like-named read-outs stand apart in the source and are kept apart here.
Experiments:
[1] = test system: human ovarian carcinoma xenografts; assay: Panel of human ovarian carcinoma xenografts, statements over several tumors
Excerpt: (§1) Drug treatment started at different tumor sizes.
(§2) Cisplatin was delivered intravenously every seventh day for three times (q7d×3).

[2] = test system: MDA-MB231 bone metastases; settings: for Incidence of ostelytic lesions (%) / Incidence of ostelytic lesions (mice/total) / Osteolytic area mm^2 ± SD / Osteolytic area square pixel ± SD: 29 days after tumor implantation, cisplatin 3.1 mg/kg iv q7dx3; for Incidence of ostelytic lesions (%) / Incidence of ostelytic lesions (mice/total) / Osteolytic area mm^2 ± SD / Osteolytic area square pixel ± SD / frequency of osteolysis in tibias compared with the control group: ST1926 25 mg/kg po qdx2/wx3w; for frequency of osteolysis in tibias compared with the control group: radiographs 29 days from injection, cisplatin 3.1 iv q7dx3
Experimental: A human breast cancer cell line, MDA-MB231 was cultured in DMEM supplemented with 10% FCS and 1% penicillin-streptomycin solution in a humidified atmosphere of 5% CO2 in air. Cultured used for intratibial injection were at subconfluency. Cells (1×10^5) were suspended in 0.1 ml of PBS and injected into the tibia of female BALB/c-nu/nu mice with the use of a 27-gauge needle under the anesthesia ip of ketamine and xylazine chloride.
Animals were housed under a light-dark cycle, keeping temperature and humidity constant. Parameters of the animal rooms were assessed as follows: 22±2° C. temperature, 55±10% relative humidity, about 15-20 filtered air changes/hour and 12 hour circadian cycle of artificial light (7 a.m., 7 p.m.). At request, the environmental conditions were monitored and the data are retained in Animal Housing Archives. Drinking water was supplied ad libitum. Each mouse was offered daily a complete pellet diet (GLP 4RF21, Mucedola) throughout the study. The analytical certificates of animal food and water are retained at Sigma-Tau premises. All animals were weighed before starting the experiment and were subdivided into the different dosage groups. Each cage was identified by a paper tag indicating: cage number, group, date of tumor injection, starting date of treatment, name of the test item, dose and route of administration, date of sacrifice.
Incidence of osteolytic lesions and ostelytic area were evaluated 29 days after tumor implantation.

HOC18 ovarian carcinoma = test system: HOC18 ovarian carcinoma
Excerpt: as §1, §2
(§3) For statistical comparison of tumor volumes in treated vs. control mice the Student's t test (two-sided) was used.

A2780/DDP = settings: for LCK (gross log10 cell kill) / TVI % Obs.: A2780/DDP s.c.
Excerpt: as §1, §2, §3

A2780 ovarian carcinoma = settings: for LCK (gross log10 cell kill) / TVI % Obs.: A2780 s.c.
Excerpt: as §1, §2, §3

1A9PTX22 = settings: for LCK (gross log10 cell kill) / TVI % Obs.: 1A9PTX22 s.c.
Excerpt: as §1, §2, §3

in vivo = settings: female, athymic Swiss nude, mouse, po
[3] = test system: IGROV-1 ovarian carcinoma; assay: s.c. growing IGROV-1 tumor, ST1926 doses and schedules
[4] = test system: IGROV-1 ovarian carcinoma; assay: i.p. growing IGROV-1 tumor, locoregional treatment, survival; assay type: in vivo
Experimental: The IGROV-1 ovarian carcinoma line was maintained by serial intraperitoneal passages in healthy mice. Tumor grows as ascites and small solid masses. IGROV-1 ascitic cells were collected and prepared as previously described [Pratesi G., Tortoreto M., Zunino F., Reg. Cancer Treat., 1990; 3:40-43] and 2.5×10^6 cells/mouse (in 0.2 ml of saline) were injected intraperitoneally. Mice developed hemorrhagic and diffuse carcinomatosis and eventually died by 20 to 35 days. Animals were inspected daily and weighed three times a week. The median day of death (median survival time: MST) was considered as the experimental end point.
Experimental groups consisted of seven mice.
The compound was delivered intraperitoneally at a dose of 10 mg/kg, daily for 5 days a week for 4 weeks (qd×5/w×4w), starting the day after cell injection. Drug activity was assessed as increase in life span (ILS) %, i.e. the percentage increase of MST in treated (T) over control (C) mice (T/C×100−100). Mice alive at the end of experiment (day 88) without disease were considered “long term survivors” (LTS).
For statistical comparison, curves reporting the percentage of surviving animals over time were estimated by the Kaplan-Meier product limit method and compared with the log-rank test. The test was two-sided.

[5] = test system: FaDu human squamous pharynx carcinoma; assay: FaDu squamous pharynx carcinoma s.c. xenograft; assay type: in vivo, mouse (human xenograft); settings: ST1926 25 mg/kg oral qdx2/wx3w, carboplatin 40 mg/kg ip q7dx3, combination: carboplatin 1 h before ST1926
Experimental: The FaDu human squamous pharynx carcinoma cells (3×10^6 tumor cells) were injected sc in the right flank of CD1 nude female mice.

[6] = test system: IGROV-1 ovarian carcinoma; settings: in vivo
[7] = HOC18 s.c., cisplatin 3.1 mg/kg iv q7dx3
[8] = HOC18 s.c., cisplatin 4.7 mg/kg iv q7dx3
[9] = cisplatin 3.1 mg/kg iv q7dx3, 1st day 2
[10] = i.p. growing tumor, 10 mg/kg i.p. qdx5/wx4w
[11] = HOC18 s.c., ST1926 30 mg/kg oral qdx2/wx3w, 1st day 27
[12] = ST1926 45 mg/kg oral qdx2/wx3w, 1st day 2
[13] = ST1926 30 mg/kg oral qdx2/wx3w, 1st day 2
[14] = ST1926 30 mg/kg oral qdx2/wx3w, 1st day 34

N.N.[Cl][Pt][Cl] [Cisplatin, cisplatin]
body weight loss ([1]; optimal doses of cisplatin): around 20%
Incidence of ostelytic lesions (%) [2]: 71%
Incidence of ostelytic lesions (mice/total) [2]: 5/7
Osteolytic area mm^2 ± SD [2]: 4.6 ± 1.9 mm^2
Osteolytic area square pixel ± SD [2]: 458 ± 190 square pixel
frequency of osteolysis in tibias compared with the control group [2]: no significant differences
LCK (gross log10 cell kill) (HOC18 ovarian carcinoma; [7]): 1.0
TVI % Obs. (HOC18 ovarian carcinoma; [7]): 41%
LCK (gross log10 cell kill) (HOC18 ovarian carcinoma; [8]): >>1.7
TVI % Obs. (HOC18 ovarian carcinoma; [8]): 81%
NED (not evidence of disease at the end of the experiment) (HOC18 ovarian carcinoma; HOC18 s.c., cisplatin 4.7 mg/kg iv q7dx3, tumors/total): 1/10
complete responses (no evidence of disease at the experiment end), tumors (HOC18 ovarian carcinoma; HOC18 tumor, dose groups taken together): 1/10
LCK (gross log10 cell kill) (A2780/DDP; cisplatin 4.7 mg/kg iv q7dx3): 0
TVI % Obs. (A2780/DDP; cisplatin 4.7 mg/kg iv q7dx3): 15%
LCK (gross log10 cell kill) (A2780 ovarian carcinoma; [9]): 0.4
TVI % Obs. (A2780 ovarian carcinoma; [9]): 40%
LCK (gross log10 cell kill) (A2780 ovarian carcinoma; cisplatin 4.7 mg/kg iv q7dx3): 1.2
TVI % Obs. (A2780 ovarian carcinoma; cisplatin 4.7 mg/kg iv q7dx3): 80%
LCK (gross log10 cell kill) (1A9PTX22; cisplatin 3.1 mg/kg iv q7dx3): 0.3
TVI % Obs. (1A9PTX22; cisplatin 3.1 mg/kg iv q7dx3): 38%
LCK (gross log10 cell kill) (1A9PTX22; cisplatin 4.7 mg/kg iv q7dx3): 0.6
TVI % Obs. (1A9PTX22; cisplatin 4.7 mg/kg iv q7dx3): 57%

O=C(O)/C=C/c1ccc(-c2ccc(O)c(C34CC5CC(CC(C5)C3)C4)c2)cc1 [ST1926, E-4-(3-(1-adamantyl)-4-hydroxyphenyl)cinnamic acid]
MTD (in vivo): 15 mg/kg
TV inhibition, all the tumors investigated ([1]; ST1926 30 or 45 mg/kg per os qdx2/w for 2 or 3 weeks): ≤ 50%
LCK ([3]; 15 mg/kg oral qdx2/wx2w): 0.1
TVI % ([3]; 15 mg/kg oral qdx2/wx2w): 39%
LCK ([3]; 15 mg/kg oral qdx5/wx3w): 0.4
TVI % ([3]; 15 mg/kg oral qdx5/wx3w): 52%
LCK ([3]; 5 × 2 mg/kg oral qdx5/wx4w): 0.3
TVI % ([3]; 5 × 2 mg/kg oral qdx5/wx4w): 35%
Incidence of ostelytic lesions (%) [2]: 63%
Incidence of ostelytic lesions (mice/total) [2]: 5/8
Osteolytic area mm^2 ± SD [2]: 3.1 ± 1.0 mm^2
Osteolytic area square pixel ± SD [2]: 310 ± 106 square pixel
tolerability in tumor-bearing mice ([2]; in vivo, po, 25 mg/kg): well-tolerated
frequency of osteolysis in tibias compared with the control group [2]: no significant differences
survival time over control mice ([4]; i.p. growing IGROV-1, 10 mg/kg qdx5/wx4 weeks): significantly (P<0.01) increased
ILS (increase in life span % in treated over control mice) [4, 10]: 91%
Tox (No. of dead mice/total no. of mice) [4, 10]: 0/7
LTS (long term survivors at the end of experiments, day 88) ([4]; i.p. growing tumor, 10 mg/kg i.p. qdx5/wx4w, 10 mg/kg): 2 out of 7 and 2/7
TVI [5]: 35%
LCK (gross log10 cell kill) (HOC18 ovarian carcinoma; [11]): 0.4
TVI % Obs. (HOC18 ovarian carcinoma; [11]): 37%
BWL % (highest) (HOC18 ovarian carcinoma; in vivo, 30 mg/kg): 3%
LCK (gross log10 cell kill) (A2780/DDP; [12]): 0.8
TVI % Obs. (A2780/DDP; [12]): 41%
BWL % (highest) (A2780/DDP; in vivo, 45 mg/kg): 13%
LCK (gross log10 cell kill) (A2780 ovarian carcinoma; [13]): 0.4
TVI % Obs. (A2780 ovarian carcinoma; [13]): 40%
BWL % (highest) (A2780 ovarian carcinoma; in vivo, 30 mg/kg): 5%
LCK (gross log10 cell kill) (1A9PTX22; [14]): 0.3
TVI % Obs. (1A9PTX22; [14]): 35%
BWL % (highest) (1A9PTX22; in vivo, 30 mg/kg): 10%
BWL (body weight loss %, highest) ([6]; 2 mg/kg): 12%
BWL (body weight loss %, highest) ([6]; 20 mg/kg): 25%

N.N.O=C([O-])C1(C(=O)[O-])CCC1.[Pt+2] [carboplatin, reference compound]
TVI [5]: 52%

From patent US20100330200A1, “COMBINATION OF A RETINOID AND A PLATINUM ANTICANCER AGENT” (SIGMA-TAU INDUSTRIE FARMACEUTICHE RIUNITE S.P.A., priority 2006, published 2010)
